Tests used:
Format in all cases: physicochemical
[1] = Maximal terpene loading at high Baker's yeast particle levels (free terpene score); set-up: key to Free Terpene: +: “free terpene” refers to the visible presence of terpene in the centrifuged reaction mixture; −: The absence of free terpene indicates complete absorption of the terpene by the particles; details: for terpene emulsion absorbed and encapsulated per 125 mg of YP: Baker's YP 250 mg/ml; for Free Terpene: 500 μl 250 mg/ml YP
Description: Samples were centrifuged at 14,000×g for 10 minutes and the appearance of free terpene floating on the aqueous layer was scored. The expression “free terpene” refers to the visible presence of terpene in the centrifuged reaction mixture. The absence of free terpene indicates complete absorption of the terpene by the YP. The highest volume of terpene absorbed by the YP, as evidenced by the absence of free terpene, was recorded as the maximal volume of absorbed terpene emulsion.

[2] = Screen of commercially available particles for terpene absorption (free terpene score); set-up: key: +: “free terpene” refers to the visible presence of terpene in the centrifuged reaction mixture; −: The absence of free terpene indicates complete absorption of the terpene by the particles; details: overnight
Description: The following protocol was performed to analyse the loading properties of different types of particles. The particles studied were Baker's Yeast Particles (Sigma Chemical Corp., St. Louis, Mo.), Nutrex™ Walls (Sensient Technologies, Milwaukee, Wis.), SAF-Mannan™ (SAF Agri, Minneapolis, Minn.), Nutricept Walls™ (Nutricepts Inc., Burnsville, Minn.), Levacan™ (Savory Systems International, Inc., Branchburg, N.J.) and WGP™ (Alpha-beta Technology, Inc. Worcester, Mass.).
The YP suspensions were prepared as follows: • Baker's yeast particle suspension (YP) was prepared by mixing 250 mg YP/ml 1% Tween 80. • Nutrex suspension was prepared by mixing 163 mg Nutrex YGP/ml 1% Tween 80. • SAF Mannan suspension was prepared by mixing 234 mg Biospringer YGP/ml 1% Tween 80. • Nutricepts suspension was prepared by mixing 99 mg Nutricepts YGP/ml 1% Tween 80. • Levacan suspension was prepared by mixing 217 mg Lev YGP/ml 1% Tween 80. • WGP suspension was prepared by mixing 121 mg WGP YGP/ml 1% Tween 80.
The packed volume of the above particles is identical which means that equal numbers of particles were assayed.
Loading reactions were set up as shown in Table 25 and left to incubate overnight. Samples were centrifuged at 14,000×g for 10 minutes and the appearance of free terpene floating on the aqueous layer and the color of the encapsulated terpenes in the pellet was scored. The highest volume of terpene absorbed by particles as evidenced by the absence of free terpene was recorded as the volume of absorbed terpene emulsion.

[3] = SAF Mannan loading of different terpenes and terpene mixtures; set-up: key to Free Terpene: +: “free terpene” refers to the visible presence of terpene in the centrifuged reaction mixture; −: The absence of free terpene indicates complete absorption of the terpene by the particles; key to Free Terpene: phase inversion remark: Inverted = Phase Inverted - solids floating on top - no free oil; W = white; Y = yellow; details: for Free Terpene: SAF Mannan 500 μl (250 mg/ml), overnight, room temperature; for Free Terpene: phase inversion remark: SAF Mannan 500 μl, second line of the Free Terpene cell; for Vol. loaded (maximal terpene loading in SAF Mannan): approximate maximal loading, volume of terpene emulsion absorbed by SAF Mannan; for % Loaded w/w (maximal terpene loading in SAF Mannan): ratio of amount of terpene loaded to amount of particle present (weight for weight)
Description: Increasing volumes of terpene emulsion were mixed with 250 mg/ml Baker's YP or 250 mg/ml SAF Mannan™ overnight at room temperature as shown in Tables 27 and 28. Samples were centrifuged at 14,000×g for 10 minutes and the appearance of free terpene floating on the aqueous layer was scored. The highest volume of terpene emulsion absorbed by Baker's YP or SAF Mannan™ as evidenced by the absence of free terpene was recorded as the volume of absorbed terpene emulsion. Colour of encapsulated terpenes in the pellet was recorded.
Percentage loaded represents a ratio of the amount of terpene loaded to the amount of particle present (weight for weight).

[4] = Terpene stability: yellow colored oxidation product (colour of encapsulated terpene pellet); set-up: key to Colour: W = white; Y = yellow; sl = slight; int = intermediate; key to Color: White, W; Yellow, Y; Very Yellow, VY; details: for Color: Table 26, scored at 24 hours
Description: Loading reactions were set up as shown in Table 25 and left to incubate overnight. Samples were centrifuged at 14,000×g for 10 minutes and the appearance of free terpene floating on the aqueous layer and the color of the encapsulated terpenes in the pellet was scored. The highest volume of terpene absorbed by particles as evidenced by the absence of free terpene was recorded as the volume of absorbed terpene emulsion. The reactions were incubated for 1, 3, 6, 9 and 24 hours at room temperature or 37° C. After incubation samples were centrifuged at 14,000×g for 10 minutes and the appearance of free terpene floating on the aqueous layer was scored. The highest volume of terpene absorbed by the particles as evidenced by the absence of free terpene was recorded as the volume of absorbed terpene emulsion. Colour of the encapsulated pellet was scored at 24 hours. Increasing volumes of terpene emulsion were mixed with 250 mg/ml Baker's YP or 250 mg/ml SAF Mannan™ overnight at room temperature as shown in Tables 27 and 28. Samples were centrifuged at 14,000×g for 10 minutes and the appearance of free terpene floating on the aqueous layer was scored. The highest volume of terpene emulsion absorbed by Baker's YP or SAF Mannan™ as evidenced by the absence of free terpene was recorded as the volume of absorbed terpene emulsion. Colour of encapsulated terpenes in the pellet was recorded.

[5] = emulsion 15 μl, 1% Tween-80 485 μl
[6] = emulsion 37.5 μl, 1% Tween-80 462.5 μl
[7] = emulsion 75 μl, 1% Tween-80 425 μl
[8] = emulsion 112.5 μl, 1% Tween-80 387.5 μl
[9] = emulsion 150 μl, 1% Tween-80 350 μl
[10] = emulsion 225 μl, 1% Tween-80 275 μl
[11] = emulsion 450 μl, 1% Tween-80 50 μl
[12] = Baker's 250 mg/ml, emulsion 125 μl L-carvone or 100 μl Citral
[13] = Levacan 217 mg/ml, emulsion 125 μl L-carvone or 100 μl Citral
[14] = Nutrex 163 mg/ml, emulsion 125 μl L-carvone or 100 μl Citral
[15] = Nutricepts 99 mg/ml, emulsion 125 μl L-carvone or 100 μl Citral
[16] = SAF Mannan 234 mg/ml, emulsion 125 μl L-carvone or 100 μl Citral
[17] = WGP 121 mg/ml, emulsion 125 μl L-carvone or 100 μl Citral
[18] = no particle, emulsion 125 μl L-carvone or 100 μl Citral in 1% Tween 80
[19] = terpene emulsion vol 15, 1% Tween-80 485 μl
[20] = terpene emulsion vol 37.5, 1% Tween-80 462.5 μl
[21] = terpene emulsion vol 75, 1% Tween-80 425 μl
[22] = terpene emulsion vol 112.5, 1% Tween-80 387.5 μl
[23] = terpene emulsion vol 450, 1% Tween-80 50 μl
[24] = Table 25, Baker's 250 mg/ml, overnight
[25] = Table 25, Levacan 217 mg/ml, overnight
[26] = Table 25, Nutrex 163 mg/ml, overnight
[27] = Table 25, Nutricepts 99 mg/ml, overnight
[28] = Table 25, SAF Mannan 234 mg/ml, overnight
[29] = Table 25, WGP 121 mg/ml, overnight
[30] = Table 27, Baker's YP, emulsion 15 μl
[31] = Table 27, Baker's YP, emulsion 37.5 μl
[32] = Table 27, Baker's YP, emulsion 112.5 μl
[33] = Table 27, Baker's YP, emulsion 150 μl
[34] = Table 27, Baker's YP, emulsion 225 μl
[35] = Table 27, Baker's YP, emulsion 450 μl
[36] = colour of encapsulated terpene in pellet, SAF Mannan 500 μl, terpene emulsion vol 15
[37] = colour of encapsulated terpene in pellet, SAF Mannan 500 μl, terpene emulsion vol 37.5
[38] = colour of encapsulated terpene in pellet, SAF Mannan 500 μl, terpene emulsion vol 75
[39] = colour of encapsulated terpene in pellet, SAF Mannan 500 μl, terpene emulsion vol 112.5
[40] = colour of encapsulated terpene in pellet, SAF Mannan 500 μl, terpene emulsion vol 150
[41] = colour of encapsulated terpene in pellet, SAF Mannan 500 μl, terpene emulsion vol 225
[42] = colour of encapsulated terpene in pellet, SAF Mannan 500 μl, terpene emulsion vol 450

CC(C)=CCCC(C)=CC=O [Citral, citral]
terpene emulsion absorbed and encapsulated per 125 mg of YP [1]: at least 75 μl
Free Terpene [1, 5]: −
Free Terpene [1, 6]: −
Free Terpene [1, 7]: −
Free Terpene [1, 8]: Sl+
Free Terpene [1, 9]: +
Free Terpene [1, 10]: +
Free Terpene [1, 11]: +
Free Terpene [2, 12]: −
Free Terpene [2, 13]: +
Free Terpene [2, 14]: −
Free Terpene [2, 15]: +
Free Terpene [2, 16]: −
Free Terpene [2, 17]: +
Free Terpene [2, 18]: +
Free Terpene [3, 19]: −
Free Terpene [3, 20]: −
Free Terpene [3, 21]: −
Free Terpene [3, 22]: −
Free Terpene ([3]; terpene emulsion vol 225, 1% Tween-80 275 μl): +
Free Terpene [3, 23]: +
Free Terpene: phase inversion remark ([3]; terpene emulsion vol 150): Inverted
Free Terpene: phase inversion remark ([3]; terpene emulsion vol 225): Inverted
Free Terpene: phase inversion remark ([3]; terpene emulsion vol 450): Inverted
Vol. loaded (maximal terpene loading in SAF Mannan) [3]: 150 µL
% Loaded w/w (maximal terpene loading in SAF Mannan) [3]: 133% w/w
Colour [4, 24]: Y
Colour [4, 25]: int
Colour [4, 26]: Y
Colour [4, 27]: Y
Colour [4, 28]: W
Colour [4, 29]: int
Colour ([4]; Table 25, no particle, emulsion in 1% Tween 80, overnight): Y
Color ([4]; 37 ° C., Bakers 250 mg/ml): VY
Color ([4]; 37 ° C., Nutrex 100 mg/ml): VY
Color ([4]; 37 ° C., SAF 100 mg/ml): W
Color ([4]; Rt, Bakers 250 mg/ml): Y
Color ([4]; Rt, Nutrex 100 mg/ml): Y
Color ([4]; Rt, SAF 100 mg/ml): W
Colour [4, 30]: Y
Colour [4, 31]: Y
Colour ([4]; Table 27, Baker's YP, emulsion 75 μl): Y
Colour [4, 32]: Y
Colour [4, 33]: Y
Colour [4, 34]: Y
Colour [4, 35]: Y
Colour [4, 36]: W
Colour [4, 37]: W
Colour [4, 38]: W
Colour [4, 39]: W
Colour [4, 40]: W
Colour [4, 41]: W
Colour [4, 42]: W

L-carvone
terpene emulsion absorbed and encapsulated per 125 mg of YP [1]: at least 112.5 μl
Free Terpene [1, 5]: −
Free Terpene [1, 6]: −
Free Terpene [1, 7]: −
Free Terpene [1, 8]: −
Free Terpene [1, 9]: Sl+
Free Terpene [1, 10]: +
Free Terpene [1, 11]: +
Free Terpene [2, 12]: −
Free Terpene [2, 13]: +
Free Terpene [2, 14]: −
Free Terpene [2, 15]: +
Free Terpene [2, 16]: −
Free Terpene [2, 17]: +
Free Terpene [2, 18]: +
Free Terpene [3, 19]: −
Free Terpene [3, 20]: −
Free Terpene [3, 21]: −
Free Terpene [3, 22]: −
Free Terpene [3, 23]: +
Vol. loaded (maximal terpene loading in SAF Mannan) [3]: 112.5 µL
% Loaded w/w (maximal terpene loading in SAF Mannan) [3]: 100% w/w
Colour [4, 24]: W
Colour [4, 25]: W
Colour [4, 26]: W
Colour [4, 27]: W
Colour [4, 28]: W
Colour [4, 29]: W
Color ([4]; 37 ° C., Bakers 250 mg/ml): W
Color ([4]; 37 ° C., Nutrex 100 mg/ml): W
Color ([4]; 37 ° C., SAF 100 mg/ml): W
Color ([4]; Rt, Bakers 250 mg/ml): W
Color ([4]; Rt, Nutrex 100 mg/ml): W
Color ([4]; Rt, SAF 100 mg/ml): W
Colour ([4]; Table 27, Baker's YP, emulsion 7 μl as printed): W
Colour [4, 30]: W
Colour [4, 31]: W
Colour [4, 32]: W
Colour [4, 33]: W
Colour [4, 34]: W
Colour [4, 35]: W
Colour [4, 36]: W
Colour [4, 37]: W
Colour [4, 38]: W
Colour [4, 39]: W
Colour [4, 40]: W
Colour [4, 41]: W
Colour [4, 42]: W

Source: patent publication US10729130B2, “Nematicidal compositions and methods of using them” (Eden Research plc, priority 2004, dated 2020)
